ChEMBL document CHEMBL1148272, “3D-QSAR studies on PU3 analogues by comparative molecular field analysis” (Bioorg Med Chem Lett, 2004)

Test system: MCF7
Test: Antiproliferative activity evaluated against MCF-7 cell line
Assay type: functional, cell-based
Settings: Homo sapiens

| SMILES | IC50 |
| --- | --- |
| CCCCn1c(Cc2cc(OC)c(OC)c(OC)c2Cl)nc2c(N)ncnc21 | 19.1 µM |
| CCCCn1c(Cc2cc(OC)c(OC)c(OC)c2)nc2c(N)ncnc21 | 50.1 µM |
| CCCCn1c(Cc2cc(OC)c(OC)c(OC)c2)nc2c(N)nc(F)nc21 | 24 µM |
| C#CCCCn1c(Cc2cc(OC)c(OC)c(OC)c2)nc2c(N)ncnc21 | 24 µM |
| COc1cc(Cc2nc3c(N)nc(F)nc3n2CC2CCC2)cc(OC)c1OC | 40.7 µM |
| CCCn1c(Cc2cc(OC)c(OC)c(OC)c2)nc2c(N)ncnc21 | 46.8 µM |
| CCCn1c(Cc2cc(OC)c(OC)c(OC)c2)nc2c(N)nc(F)nc21 | 25.1 µM |
| COc1cc(Cc2nc3c(N)ncnc3n2CC2CCCO2)cc(OC)c1OC (stereo not given) | 91.2 µM |
| CCCCn1c(Cc2cc(OC)c(OC)c(OC)c2Br)nc2c(N)ncnc21 | 25.1 µM |
| C=CCCn1c(Cc2cc(OC)c(OC)c(OC)c2)nc2c(N)nc(F)nc21 | 33.1 µM |
| CCCCCn1c(Cc2cc(OC)c(OC)c(OC)c2)nc2c(N)ncnc21 | 61.7 µM |
| CC/C=C/Cn1c(Cc2cc(OC)c(OC)c(OC)c2)nc2c(N)ncnc21 | 46.8 µM |
| COc1cc(Cc2nc3c(N)ncnc3n2CC2CCC2)cc(OC)c1OC | 45.7 µM |
| CCn1c(Cc2cc(OC)c(OC)c(OC)c2)nc2c(N)ncnc21 | 79.4 µM |
| CCCCCn1c(Cc2cc(OC)c(OC)c(OC)c2)nc2c(N)nc(F)nc21 | 36.3 µM |
| COCCn1c(Cc2cc(OC)c(OC)c(OC)c2)nc2c(N)ncnc21 | 64.6 µM |
| CCC(CC)Cn1c(Cc2cc(OC)c(OC)c(OC)c2)nc2c(N)ncnc21 | 158 µM |
| C=CCCCn1c(Cc2cc(OC)c(OC)c(OC)c2)nc2c(N)nc(F)nc21 | 44.7 µM |

More lines, in order of falling IC50, values ahead:

| IC50 | SMILES |
| --- | --- |
| 112 µM | COc1cc(Cc2nc3c(N)ncnc3n2CC2(C)CC2)cc(OC)c1OC |
| 97.7 µM | COc1cc(Cc2nc3c(N)ncnc3n2CC(C)C)cc(OC)c1OC |
| 75.9 µM | COc1cc(Cc2nc3c(N)ncnc3n2CC2CC2)cc(OC)c1OC |
| 72.4 µM | COc1cc(Cc2nc3c(N)ncnc3n2CC(OC)OC)cc(OC)c1OC |
| 70.8 µM | COc1cc(Cc2nc3c(N)ncnc3n2C)cc(OC)c1OC |
| 69.2 µM | COc1cc(Cc2nc3c(N)ncnc3n2CCCC(C)C)cc(OC)c1OC |
| 64.6 µM | COCCn1c(Cc2cc(OC)c(OC)c(OC)c2)nc2c(N)nc(F)nc21 |
| 64.6 µM | CC/C=C\Cn1c(Cc2cc(OC)c(OC)c(OC)c2)nc2c(N)ncnc21 |
| 61.7 µM | CCC(C)Cn1c(Cc2cc(OC)c(OC)c(OC)c2)nc2c(N)ncnc21 (stereo not given) |
| 51.3 µM | C/C=C/Cn1c(Cc2cc(OC)c(OC)c(OC)c2)nc2c(N)ncnc21 |
| 43.7 µM | CC[C@H](C)Cn1c(Cc2cc(OC)c(OC)c(OC)c2)nc2c(N)nc(F)nc21 |
| 40.7 µM | C=CCCn1c(Cc2cc(OC)c(OC)c(OC)c2)nc2c(N)ncnc21 |
| 39.8 µM | COc1cc(Cc2nc3c(N)ncnc3n2CC2CCCCC2)cc(OC)c1OC |
| 38.9 µM | COc1cc(Cc2nc3c(N)ncnc3n2CCOC(C)C)cc(OC)c1OC |
| 37.2 µM | CC#CCCn1c(Cc2cc(OC)c(OC)c(OC)c2)nc2c(N)nc(F)nc21 |
| 30.2 µM | CCCCn1c(Cc2c(Br)c(OC)c(OC)c(OC)c2Br)nc2c(N)ncnc21 |
| 25.1 µM | C#CCCn1c(Cc2cc(OC)c(OC)c(OC)c2)nc2c(N)nc(F)nc21 |
| 22.9 µM | COc1cc(Cc2nc3c(N)nc(F)nc3n2CC2CCCO2)cc(OC)c1OC (stereo not given) |
| 15.8 µM | COc1cc(Cc2nc3c(N)nc(F)nc3n2CCOC(C)C)cc(OC)c1OC |
| 11 µM | C#CCCCn1c(Cc2cc(OC)c(OC)c(OC)c2)nc2c(N)nc(F)nc21 |
| 5.37 µM | COc1cc(Cc2nc3c(N)nc(F)nc3n2CCOC(C)C)c(Cl)c(OC)c1OC |
| 2 µM | C#CCCCn1c(Cc2cc(OC)c(OC)c(OC)c2Cl)nc2c(N)nc(F)nc21 |
